# Marks after values point to notes of the source that are not given here.
# Test system: Triton WR-1339 induced hyperlipidemic Wistar Rats
# Experiment: Plasma lipid levels in triton WR-1339 induced hyperlipidemia in rats
# Assay type: in vivo
# Settings: for HDL-C (plasma) / LDL-C (plasma) / TC (plasma) / TG (plasma): 20 mg/kg intragastric after triton WR-1339 200 mg/Kg i.p., about 6 hours, mean ± SEM, five rats; for Effect on elevated TC levels / Effect on elevated plasma LDL-C levels / Effect on elevated plasma TG levels / Effect on plasma HDL-C levels: in words, in comparison with HCG, 20 mg/kg intragastric, 6 hours
# Method: The study was conducted on twenty-five adult male Wistar Rats weighting 200±10 g. Wistar Rats were bred in the animal care center of Faculty of Pharmacy in Al-Zaytoonah University of Jordan. The animals were kept on 12 hours' light/dark cycle, at room temperature (25±1° C.) with free access to food and water. The rats were divided randomly into five groups each consist of five rats, whereby Group I was the normal control group (“NCG”) that received an intraperitoneal administration of normal saline, Group II was the hyperlipidemic control group (“HCG”) that received an intraperitoneal injection of about 200 mg/Kg triton WR-1339 dissolved in about 4% dimethylsulfoxide (“DMSO”)/corn oil, Groups (III, IV, V) rats received intraperitoneal injection of about 200 mg/Kg triton WR-1339.
# After about 6 hours of treatment, the rats were anaesthetized with diethyl ether and blood was collected. The blood samples were immediately centrifuged at about 3000 rpm for about 10 minutes and the serum was used for lipid profile measurements (TG, LDL-C, TC and HDL-C) by an automated chemistry analyzer (Model Erba XL-300, Mannheim, Germany). Furthermore, liver samples were collected, and then kept in liquid nitrogen, and stored at (−80° C.) for the mRNA extraction as described in Example 5 below.
# The plasma of TG, TC, LDL-C and HDL-C levels in HCG treated at 6 hours after administration of triton WR-1339 are shown in FIG. 2.
# After the injection of Wistar Rats with Triton WR-1339 in Example 3, Groups III, IV, V received an intragastric administration of (20 mg/kg by weight) of compounds C1, C2 and C3, respectively, dissolved in about 4% DMSO/corn oil. FIGS. 3, 4, 5, 6 illustrate bar charts showing the effect of the compounds C1, C2, and C3 on the Triton WR-1339 induced hyperlipidemic Wistar Rats after about 6 hours of treatment on TG, TC, LDL-C, and HDL-C.
Compound,HDL-C (plasma),LDL-C (plasma),TC (plasma),TG (plasma),Effect on elevated TC levels,Effect on elevated plasma LDL-C levels,Effect on elevated plasma TG levels,Effect on plasma HDL-C levels
"O=C(Nc1ccc(O)c2c1C(=O)c1ccccc1C2=O)c1ccccn1 [Compound C3, N-(4-hydroxy-9,10-dioxo-9,10-dihydroanthracen-1-yl) picolinamide]",22 ± 2 mg/dL,11 ±1.2 ^ mg/dl,122 ± 11 mg/dL,1375 ± 23 mg/dL,non-significant effect,non-significant effect,non-significant effect,non-significant effect
"O=C(Nc1cccc2c1C(=O)c1ccccc1C2=O)c1ccccn1 [Compound C1, N-(9,10-dioxo-9,10-dihydroanthracen-1-yl) picolinamide]",56 ± 4.6 ^b mg/dl,6 ± 0.7 ^b mg/dl,42 ± 10 ^b mg/dl,145 ± 14.2 ^b mg/dl,significantly decreased,significantly lowered,significantly decreased,significantly increased
"O=C(Nc1ccc2c(c1)C(=O)c1ccccc1C2=O)c1ccccn1 [Compound C2, N-(9,10-dioxo-9,10-dihydroanthracen-2-yl) picolinamide]",38 ± 4.4 ^a mg/dl,9 ± 0.6 ^a mg/dl,75 ± 15.2 ^a mg/dl,985 ± 15.3 ^a mg/dl,significantly decreased,significantly lowered,significantly decreased,significantly increased

# Source: patent US20250360116A1, “PICOLINIC-2-CARBOXAMIDE HYBRIDIZED WITH ANTHRAQUINONE DERIVATIVES, METHODS OF PREPARATION, AND A PHARMACEUTICAL COMPOSITION COMPRISING THE SAME” (AL-ZAYTOONAH UNIVERSITY OF JORDAN, priority 2023, published 2025)
